Laboratory results reported in PMC8129133, “Polymer-free corticosteroid dimer implants for controlled and sustained drug delivery” (Nature Communications, 2021).
“And” between values parts separate entries of the source, which are not always exact repeats. Identical values can stand only once.

Test: In vitro release
Type: physicochemical
Details: for Cumulative Pred Release: Fig 5a pellet 1x1 mm; for Cumulative Pred Release (%): Fig 5a pellet
Description: Pellets for release studies. Crystalline drug dimers were weighed on a stainless steel coupon. In the case of blends with a second drug, the dimer and drug were mixed at the desired mass ratio with mortar and pestle prior to weighing. Samples were transferred to a heat press (Carver Laboratory Press). A PTFE mold containing an array of 1 mm diameter holes of 1 mm depth was placed on top of the melt, and pressure was applied for 2 min. Molded pellets were cooled to room temperature and punched out of the mold, yielding a pellet of 1 mm height × 1 mm diameter.
Release studies were carried out using different media, including PBS (pH 7.4, Gibco), 100% FBS (Sigma, F1051), 1% FBS in PBS pH 7.4, and 3.6% BSA (Sigma, A7906) in PBS (pH 7.4, Gibco). […] Samples were incubated in release medium at 37 °C under constant agitation on an orbital shaker at 115 rpm (VWR). At designated timepoints, sampling was performed by complete removal of medium and replenishment with fresh buffer. Sampling timepoints included 24 h and then every 3–4 days thereafter. For PBS release conditions, samples were analyzed directly. For samples with protein (100% FBS, 1% FBS, 3.6% BSA), protein was precipitated by addition of acetonitrile. Samples were vortexed and centrifuged to separate extracted drug from precipitated protein. The supernatant was then analyzed for drug concentration by HPLC.

[1] = Fig 6a heterodimer pellet, 4 ml PBS, Day 1, samples and avg
[2] = Fig 6a heterodimer pellet, 4 ml PBS, Day 1, samples and avg, mean
[3] = Fig 6a heterodimer pellet, 4 ml PBS, Day 5, samples and avg
[4] = Fig 6a heterodimer pellet, 4 ml PBS, Day 5, samples and avg, mean
[5] = Fig 6a heterodimer pellet, 4 ml PBS, Day 7, samples and avg
[6] = Fig 6a heterodimer pellet, 4 ml PBS, Day 7, samples and avg, mean
[7] = Fig 6a heterodimer pellet, 4 ml PBS, Day 11, samples and avg
[8] = Fig 6a heterodimer pellet, 4 ml PBS, Day 11, samples and avg, mean
[9] = Fig 6a heterodimer pellet, 4 ml PBS, Day 14, samples and avg
[10] = Fig 6a heterodimer pellet, 4 ml PBS, Day 14, samples and avg, mean
[11] = Fig 6a heterodimer pellet, PBS, Day 1, avg
[12] = Fig 6a heterodimer pellet, PBS, Day 5, avg
[13] = Fig 6a heterodimer pellet, PBS, Day 7, avg
[14] = Fig 6a heterodimer pellet, PBS, Day 11, avg
[15] = Fig 6a heterodimer pellet, PBS, Day 14, avg

CC1CC2C3CCC4=CC(=O)C=CC4(C)C3(F)C(O)CC2(C)C1(O)C(=O)COC(=O)OCCCCCCOC(=O)OCC(=O)C1(O)C(C)CC2C3CCC4=CC(=O)C=CC4(C)C3(F)C(O)CC21C (stereo not drawn) [Dex-Hex-Dex]
Cumulative Dex Release (Fig 5g pellet 1x1 mm, 2 ml FBS, Day 3, samples and avg): 5606.66 ng and 6179.38 ng and 5887.12 ng
Cumulative Dex Release (Fig 5g pellet 1x1 mm, 2 ml FBS, Day 3, samples and avg, mean): 5891.06 ng
Cumulative Dex Release (Fig 5g pellet 1x1 mm, 2 ml FBS, Day 7, samples and avg (Dex-Hex-Dex)): 14987.41 ng and 15994.59 ng and 15970.98 ng
Cumulative Dex Release (Fig 5g pellet 1x1 mm, 2 ml FBS, Day 7, samples and avg (Dex-Hex-Dex), mean): 15650.99 ng
Cumulative Dex Release (Fig 5g pellet 1x1 mm, 2 ml FBS, Day 10, samples and avg): 21287.07 ng and 22357.19 ng and 22516.81 ng
Cumulative Dex Release (Fig 5g pellet 1x1 mm, 2 ml FBS, Day 10, samples and avg, mean): 22053.69 ng
Cumulative Dex Release (Fig 5g pellet 1x1 mm, 2 ml FBS, Day 14, samples and avg (Dex-Hex-Dex)): 32738.37 ng and 34997.20 ng and 34417.18 ng
Cumulative Dex Release (Fig 5g pellet 1x1 mm, 2 ml FBS, Day 14, samples and avg (Dex-Hex-Dex), mean): 34050.91 ng
Cumulative Dex Release (%) (Fig 5g pellet, FBS, Day 3, avg): 0.42%
Cumulative Dex Release (%) (Fig 5g pellet, FBS, Day 7, avg (Dex-Hex-Dex)): 1.13%
Cumulative Dex Release (%) (Fig 5g pellet, FBS, Day 10, avg): 1.59%
Cumulative Dex Release (%) (Fig 5g pellet, FBS, Day 14, avg (Dex-Hex-Dex)): 2.45%

CC1CC2C3CCC4=CC(=O)C=CC4(C)C3(F)C(O)CC2(C)C1(O)C(=O)COC(=O)OCCOCCOCCOC(=O)OCC(=O)C1(O)CCC2C3CCC4=CC(=O)CCC4(C)C3C(O)CC21C (stereo not drawn) [Dex-TEG-HC]
Cumulative Dex Release [1]: 81.55 ng and 74.59 ng and 99.31 ng
Cumulative HC Release [1]: 224.52 ng and 206.99 ng and 167.90 ng
Cumulative Dex Release [2]: 85.15 ng
Cumulative HC Release [2]: 199.80 ng
Cumulative Dex Release [3]: 2326.27 ng and 2325.49 ng and 1831.14 ng
Cumulative HC Release [3]: 2952.91 ng and 3019.31 ng and 2390.05 ng
Cumulative Dex Release [4]: 2160.97 ng
Cumulative HC Release [4]: 2787.43 ng
Cumulative Dex Release [5]: 3098.36 ng and 2980.56 ng and 2543.37 ng
Cumulative HC Release [5]: 4047.00 ng and 4113.39 ng and 3426.84 ng
Cumulative Dex Release [6]: 2874.10 ng
Cumulative HC Release [6]: 3862.41 ng
Cumulative Dex Release [7]: 4911.68 ng and 4696.17 ng and 4037.68 ng
Cumulative HC Release [7]: 6283.65 ng and 6328.14 ng and 5362.18 ng
Cumulative Dex Release [8]: 4548.51 ng
Cumulative HC Release [8]: 5991.32 ng
Cumulative Dex Release [9]: 6135.25 ng and 5788.05 ng and 5026.44 ng
Cumulative HC Release [9]: 7866.10 ng and 7754.88 ng and 6681.74 ng
Cumulative Dex Release [10]: 5649.91 ng
Cumulative HC Release [10]: 7434.24 ng
Cumulative Dex Release (%) [11]: 0.0441%
Cumulative HC Release (%) [11]: 0.11%
Cumulative Dex Release (%) [12]: 1.12%
Cumulative HC Release (%) [12]: 1.51%
Cumulative Dex Release (%) [13]: 1.49%
Cumulative HC Release (%) [13]: 2.09%
Cumulative Dex Release (%) [14]: 2.35%
Cumulative HC Release (%) [14]: 3.25%
Cumulative Dex Release (%) [15]: 2.92%
Cumulative HC Release (%) [15]: 4.03%

CC12CCC(=O)C=C1CCC1C2C(O)CC2(C)C1CCC2(O)C(=O)COC(=O)OCCOCCOCCOC(=O)OCC(=O)C1(O)CCC2C3CCC4=CC(=O)CCC4(C)C3C(O)CC21C (stereo not drawn) [HC-TEG-HC]
Cumulative HC Release (Fig 5c pellet 1x1 mm, 4 ml PBS, Day 1, samples and avg): 3582.46 ng and 3140.26 ng and 2450.67 ng
Cumulative HC Release (Fig 5c pellet 1x1 mm, 4 ml PBS, Day 1, samples and avg, mean): 3057.80 ng
Cumulative HC Release (Fig 5c pellet 1x1 mm, 4 ml PBS, Day 3, samples and avg): 8019.98 ng and 7816.75 ng and 5925.61 ng
Cumulative HC Release (Fig 5c pellet 1x1 mm, 4 ml PBS, Day 3, samples and avg, mean): 7254.11 ng
Cumulative HC Release (Fig 5c pellet 1x1 mm, 4 ml PBS, Day 7, samples and avg): 21489.19 ng and 20555.93 ng and 15454.82 ng
Cumulative HC Release (Fig 5c pellet 1x1 mm, 4 ml PBS, Day 7, samples and avg, mean): 19166.65 ng
Cumulative HC Release (Fig 5c pellet 1x1 mm, 4 ml PBS, Day 11, samples and avg): 36020.08 ng and 33028.17 ng and 24138.38 ng
Cumulative HC Release (Fig 5c pellet 1x1 mm, 4 ml PBS, Day 11, samples and avg, mean): 31062.21 ng
Cumulative HC Release (Fig 5c pellet 1x1 mm, 4 ml PBS, Day 14, samples and avg): 45741.74 ng and 40347.40 ng and 29842.17 ng
Cumulative HC Release (Fig 5c pellet 1x1 mm, 4 ml PBS, Day 14, samples and avg, mean): 38643.77 ng
Cumulative HC Release (%) (Fig 5c pellet, PBS, Day 1, avg): 0.51%
Cumulative HC Release (%) (Fig 5c pellet, PBS, Day 3, avg): 1.20%
Cumulative HC Release (%) (Fig 5c pellet, PBS, Day 7, avg): 3.17%
Cumulative HC Release (%) (Fig 5c pellet, PBS, Day 11, avg): 5.15%
Cumulative HC Release (%) (Fig 5c pellet, PBS, Day 14, avg): 6.40%

CC12C=CC(=O)C=C1CCC1C2C(O)CC2(C)C1CCC2(O)C(=O)COC(=O)OCCOCCOCCOC(=O)OCC(=O)C1(O)CCC2C3CCC4=CC(=O)C=CC4(C)C3C(O)CC21C (stereo not drawn) [Pred-TEG-Pred]
Cumulative Pred Release (4 ml PBS, Day 1, samples and avg): 4849.98 ng and 3117.45 ng and 2848.01 ng
Cumulative Pred Release (4 ml PBS, Day 1, samples and avg, mean): 3605.15 ng
Cumulative Pred Release (4 ml PBS, Day 3, samples and avg): 9969.33 ng and 8304.40 ng and 8589.91 ng
Cumulative Pred Release (4 ml PBS, Day 3, samples and avg, mean): 8954.55 ng
Cumulative Pred Release (4 ml PBS, Day 7, samples and avg): 27879.94 ng and 24662.51 ng and 25461.45 ng
Cumulative Pred Release (4 ml PBS, Day 7, samples and avg, mean): 26001.30 ng
Cumulative Pred Release (4 ml PBS, Day 14, samples and avg): 55975.76 ng and 47712.14 ng and 52962.20 ng
Cumulative Pred Release (4 ml PBS, Day 14, samples and avg, mean): 52216.70 ng
Cumulative Pred Release (%) (PBS, Day 1, avg): 0.38%
Cumulative Pred Release (%) (PBS, Day 3, avg): 0.94%
Cumulative Pred Release (%) (PBS, Day 7, avg): 2.72%
Cumulative Pred Release (%) (PBS, Day 14, avg): 5.45%
